# Test results published in patent publication US20180171288A1, “METHODS OF TREATING CANCER” (THE UNIVERSITY OF ROCHESTER, priority 2016, published 2018).
# “And” between values parts separate entries of the source, which are not always exact repeats. Equal entries are not always repeated. “Also recorded” adds a separate entry of the source. Where two headings read alike, the source gives them in different places.
# Tests used:
# GBM cells [1] = experiment: Sensitivity of GBM cells to TMX / cell killing; type: cell-based, human
# Excerpt: The cell lines studied represent a range of glioblastoma subtypes and genotypes and generate human glioblastomas when transplanted into the CNS of immune-deficient mice.
# [2] = tested on: OPCs isolated from the developing human central nervous system; experiment: Sensitivity of human OPCs to anticancer agents; type: cell-based
# Excerpt: This is a particularly difficult problem to solve in the context of cells of the central nervous system, as many of these cells are inherently more sensitive to anticancer agents than are cancer cells themselves. Previous studies have shown that one of the cell types of the brain that is most sensitive to the adverse effects of multiple chemotherapeutic agents are the oligodendrocyte progenitor cells (OPCs) that give rise to the myelin-forming oligodendrocytes of the central nervous system.
# Cool-1/βpix = Cool-1/βpix Serine340 phosphorylation (antibody blot / immunostaining); type: cell-based, human; conditions: anti-phospho-Cool1/βpix antibody
# [3] = tested on: complex between c-Cbl and Cool-1/βpix; conditions: TMX-resistant luminal breast cancer cells
# [4] = tested on: tamoxifen-resistant luminal breast cancer cells
# c-Cbl = c-Cbl phosphorylation in GBM cells; type: cell-based, human
# Experimental: In this approach, cancer cells are treated with a CRA or a DCLTD in the presence or absence of an agent that causes cells to become more oxidized. The status of c-Cbl phosphorylation may be analyzed by any of a number of means well-known to those skilled in the art, including Western blot analysis of cell lysates with an antibody that identifies phosphorylated c-Cbl, for instance at tyrosine residues Y731 or Y771, analysis of cell labeling with such antibodies which may be conjugated with a fluorescent probe that makes them suitable for analysis by fluorescence microscopy, immunohistochemistry or by automated fluorescence analysis of some form, or by CYTOF mass cytometry analysis. The change in phosphorylation status is compared with that seen in untreated cells, in cells treated with the CRA or DCLTD by itself, or that treated with a pro-oxidant by itself.
# An example of the ability of DCLTDs to restore the ability of TMX to enhance phosphorylation of c-Cbl via the redox/Fyn/c-Cbl pathway is shown in FIG. 8. […] As predicted if activation was RFC pathway-mediated, such activation was inhibited by N-acetyl-L-cysteine (NAC, a glutathione pro-drug and anti-oxidant), thus confirming that TMX-induced activation of c-Cbl was dependent on the pro-oxidative activities of TMX.
# [5] = tested on: complex between c-Cbl and Cool-1/βpix; experiment: Complex between c-Cbl and Cool-1/βpix in GBM cells (immunoprecipitation, immunoblot); type: cell-based, human
# Excerpt: Lysates of treated and untreated cells were immuno-precipitated with anti-c-Cbl antibody followed by immunoblot analysis for Cool-1/βpix expression.
# GBM cells [6] = experiment: Protein levels of direct and indirect c-Cbl targets in GBM cells; type: cell-based, human
# Experimental: Alternatively, restoration of c-Cbl function can be determined by analysis of changes in the levels of direct targets of c-Cbl, with changes in the levels of two or more c-Cbl targets caused by the application of a single therapeutic intervention being an indicator of c-Cbl activation. In such analyses, cells are treated with saline, with the CRA or DCLTD by itself, with a pro-oxidant or with the combination of a CRA or a DCLTD with a pro-oxidant. The ability of treatment with the combined agents to cause greater decreases in the levels of proteins that are direct targets of c-Cbl provides a surrogate indicator of c-Cbl activation.
# Six of the 10 compounds remaining were chosen to determine whether they restored the ability of oxidation of cells to cause decreases in levels of a c-Cbl target, an outcome that occurs when c-Cbl is activated via the redox/Fyn/c-Cbl pathway. These compounds indeed restored the ability of pro-oxidative stimulation to cause decreases in the levels of the epidermal growth factor receptor (EGFR), which is a c-Cbl target known to be important in growth of many cancer cells and that is of interest as a potential target in cancer treatment.
# There are two groups of such proteins, ones in which the connection to a c-Cbl target can be reasonably surmised based on prior research and ones for which the linkage to c-Cbl is currently unknown. Non-limiting examples of the first category of outcomes are activities of Erk1/2 and Akt, which both are downstream of receptor tyrosine kinases that are targets of c-Cbl. Further non-limiting examples are activity levels of NF-κB and serum response element (SRE), which are activated downstream of Akt and […], respectively.
# melanoma cells = experiment: Sensitivity of melanoma cells to TMX; type: cell-based
# TMXR MCF-7 cells = experiment: Growth and killing of TMXR MCF-7 cells in vitro; type: cell-based, human; conditions: for vulnerability / resistance of TMXR MCF-7 cells to 4^OH-CPP: 3 μM MPT, 5 μM TMX, 5 μM 4^OH-CPP
# GBM TICs = experiment: Tumor generation by GBM cells treated in vitro and transplanted intra-cranially in NSG mice; type: in vivo; conditions: cells exposed 72 hrs in vitro, four GBM cell lines
# Excerpt: After treatment, 500,000 live cells were transplanted intra-cranially in NSG mice. […] In contrast with the effects of MPT+TMX in TICs, treatment with temozolomide (TMZ, the frontline treatment for glioblastoma), had no apparent effects on TICs (FIG. 12D).
# Unexpectedly, in light of the partial reduction in levels of Cool-1/βpix, and the similarly partial reduction in levels of proteins important in TIC biology, treatment with DCLTD-based therapies eliminates TICs. […] After treatment, 500,000 live cells were transplanted intra-cranially in NSG mice. […] Thus, treatment with temozolomide had little apparent effect on TIC elimination, in agreement with patient data indicating rapid recurrence of tumor even during the period of temozolomide treatment.
# Exposure of GBM cells to the combination of MPT+TMX led to the apparently complete elimination of GBM cancer stem cells. GBM cells from four different cell lines were exposed to MPT+TMX combination for 72 hrs in vitro, after which 500,000 live cells were transplanted intra-cranially in NSG mice.
# parental MCF-7 cells = type: cell-based, human
# human GBM cells = experiment: Established intracranial human GBM xenografts in NSG mice (cohorts together)
# hGBM10 = experiment: Intracranial xenograft, hGBM10; type: in vivo, NSG mice
# hGBM27 = experiment: Intracranial xenograft, hGBM27; type: in vivo, NSG mice
# tumor growth = conditions: in combination with TMX; cited from earlier work
# human TMXR MCF7 cells = experiment: TMXR MCF7 mammary fat pad xenograft in NSG mice; conditions: mouse, in vivo
# MDA-MB-231 cells = experiment: Sensitivity of MDA-MB-231 BLBC cells to TMX; type: cell-based
# Excerpt: Sertraline and mefloquine both were identified in screens on MDA-MB-231 BLBC cells, in which c-Cbl is inhibited in a Cdc42-dependent manner.
compound,measurement,setting,value
CNCCC(Oc1ccc(C(F)(F)F)cc1)c1ccccc1 (stereo not shown) [fluoxetine],sensitivity of GBM cells to TMX,GBM cells [1],none of them were as effective as MPT
"CNCCCC12CCC(c3ccccc31)c1ccccc12 [MPT, maprotiline]",sensitivity of GBM cells to TMX,GBM cells [1],enhanced the sensitivity of GBM cells; also recorded: increase in tamoxifen sensitivity
same,sensitivity of OPCs to TMX,[2],did not increase the sensitivity
same,sensitivity of OPCs to temozolomide,[2],does not increase the sensitivity of OPCs to temozolomide
same,Cool-1/βpix phosphorylation on Serine340,Cool-1/βpix,decreases the level of staining; also recorded: causes a decrease in levels of Cool-1/βpix phosphorylation
same,levels of the complex between c-Cbl and Cool-1/βpix,[3],causes a decrease in levels of the complex
same,tamoxifen sensitivity of tamoxifen-resistant luminal breast cancer cells,[4],increase in tamoxifen sensitivity
same,c-Cbl phosphorylation,c-Cbl,enabled TMX-induced c-Cbl phosphorylation
same,levels of the complex between c-Cbl and Cool-1/βpix,[5],virtually complete elimination of complexes; also recorded: marked reductions in levels of the complex
same,levels of Cool-1/βpix,GBM cells [6],decreases levels of the inhibitory protein Cool-1/βpix
same,"levels of the c-Cbl targets EGFR, Notch-1, β-catenin and PDGFRα",GBM cells [6],decreases were less marked
same,sensitivity of melanoma cells to TMX,melanoma cells,increased the sensitivity of melanoma cells to TMX
same,vulnerability / resistance of TMXR MCF-7 cells to 4^OH-CPP,TMXR MCF-7 cells,only slightly increased vulnerability to 4^OH-CPP
OC(c1cc(C(F)(F)F)nc2c(C(F)(F)F)cccc12)C1CCCCN1 (stereo not shown) [mefloquine],sensitivity of melanoma cells to TMX,melanoma cells,increased the sensitivity of melanoma cells to TMX
Cc1cccc(CN2CCN(C(c3ccccc3)c3ccc(Cl)cc3)CC2)c1 (stereo not shown) [meclizine],sensitivity of GBM cells to TMX,GBM cells [1],increased the vulnerabilty of GBM cells to TMX
"CC/C(=C(\c1ccccc1)c1ccc(OCCN(C)C)cc1)c1ccccc1 [TMX, tamoxifen]",c-Cbl phosphorylation,c-Cbl,alone was not sufficient to activate c-Cbl
same,"levels of FoxM1, Sox2, HSF-1 and HSP70",GBM cells [6],does not have the above effects
same,"tumor generation after transplant of 500,000 live treated cells",GBM TICs,generated tumors within three weeks
same,effect on cell division and survival,parental MCF-7 cells,cytostatic but not lethal
same,cell division in the presence of TMX,"TMXR MCF-7 cells; 1 μM TMX, TMXR cells",continue to divide
same,vulnerability / resistance of TMXR MCF-7 cells to 4^OH-CPP,TMXR MCF-7 cells,only slightly increased vulnerability to 4^OH-CPP
"Cn1nnc2c(C(N)=O)ncn2c1=O [TMZ, temozolomide]",increase in lifespan over saline-treated mice,human GBM cells; median 9 week survival of saline-treated mice,30%
same,time lived after treatment was stopped,"human GBM cells; mouse, in vivo",4-5 weeks and 2-6 weeks
same,increase in tumor size at 12 weeks,hGBM10; hGBM10,> 500 fold and 500 fold
same,median survival,hGBM10; hGBM10 cohort,12 weeks
same,week of treatment in which tumor size began to increase,hGBM27; hGBM27,4 week
same,increase in tumor size (photon flux) at 12 weeks,"hGBM27; hGBM27, 3 weeks after cessation of treatment",> 5000 fold
same,increase in tumor size (photon flux) at the end of 9 weeks of treatment,"hGBM27; hGBM27, oral gavage 5 days on/2 days off",> 100 fold
same,median survival,hGBM27; hGBM27 cohort,11.5 weeks
OCCNC1CCCc2c1[nH]c1ccc(-c3ccccc3)cc21 (stereo not shown) [CASIN],sensitivity of OPCs to TMX,[2],does not increase the vulnerability of OPCs to TMX
C=C(NC(=O)C(=C)NC(=O)c1csc(C2=N[C@@H]3c4csc(n4)[C@H]4NC(=O)c5csc(n5)[C@H]([C@](C)(O)[C@@H](C)O)NC(=O)[C@H]5CSC(=N5)/C(=C/C)NC(=O)[C@H]([C@@H](C)O)NC(=O)c5csc(n5)[C@]3(CC2)NC(=O)[C@H](C)NC(=O)C(=C)NC(=O)[C@H](C)NC(=O)[C@H]([C@@H](C)CC)N[C@@H]2C=Cc3c([C@H](C)O)cc(nc3[C@H]2O)C(=O)O[C@@H]4C)n1)C(N)=O [thiostrepton],sensitivity of GBM cells to TMX,GBM cells [1],does not increase sensitivity to TMX as potently as does MPT
same,c-Cbl phosphorylation,c-Cbl,not associated with a notable increase in c-Cbl phosphorylation
CN(C)CCC=C1c2ccccc2CCc2ccccc21 [amitryptiline],sensitivity of GBM cells to TMX,GBM cells [1],none of them were as effective as MPT
ML141,suppression of tumor growth,tumor growth,only provided partial suppression of tumor growth
"O=P1(N(CCCl)CCCl)NCCCO1 (stereo not shown) [CPP, cyclophosphamide]",tumor growth,human TMXR MCF7 cells,already have initiated tumor growth midway through treatment
CN[C@H]1CC[C@@H](c2ccc(Cl)c(Cl)c2)c2ccccc21 [sertraline],sensitivity of OPCs to TMX,[2],does not increase sensitivity of OPCs to TMX
same,sensitivity of MDA-MB-231 BLBC cells to TMX,MDA-MB-231 cells,increased the sensitivity of these cells to TMX; also recorded: increase in tamoxifen sensitivity
